Where “and” joins values, the source holds several entries; their conditions need not be identical. Identical values can stand only once.
Tested on: A498 complex spheroids with HUVEC/MSC, growth
Experiment: Anticancer human tumor A498 cell line growth inhibition [AhR];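 further: seven day exposure starting three days after spheroid seeding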;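 on viability, T/C: luminescence signal used as a surrogate for viable cells; luminescence viability scaled so 100% equals DMSO vehicle wells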
Details: for viability, T/C: stronger effect = lower value
Method in brief: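 Complex tumor spheroids co-cultured with HUVEC and human MSC stroma; AhR antagonists tested in combination with standard-of-care and investigational agents. Top concentration at or near clinical Cmax (else 10 microM), half-log dilutions; growth expressed as percent test/control.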

[1] = curve of first compound, second compound 0.1 µM
[2] = curve of first compound, second compound 0.316 µM
[3] = curve of first compound, second compound 1 µM
[4] = curve of first compound, second compound 3.16 µM
[5] = curve of first compound, second compound 10 µM
[6] = second compound 0.1 µM, first compound 0.0316 µM
[7] = second compound 0.1 µM, first compound 0.1 µM
[8] = second compound 0.316 µM, first compound 0.0316 µM
[9] = second compound 0.316 µM, first compound 0.1 µM
[10] = second compound 1 µM, first compound 0.0316 µM
[11] = second compound 1 µM, first compound 0.1 µM
[12] = second compound 3.16 µM, first compound 0.0316 µM
[13] = second compound 3.16 µM, first compound 0.1 µM
[14] = second compound 10 µM, first compound 0.0316 µM
[15] = second compound 10 µM, first compound 0.1 µM
[16] = second compound 0.1 µM, first compound 0.000316 µM
[17] = second compound 0.1 µM, first compound 0.001 µM
[18] = second compound 0.1 µM, first compound 0.00316 µM
[19] = second compound 0.1 µM, first compound 0.01 µM
[20] = second compound 0.316 µM, first compound 0.000316 µM
[21] = second compound 0.316 µM, first compound 0.001 µM
[22] = second compound 0.316 µM, first compound 0.00316 µM
[23] = second compound 0.316 µM, first compound 0.01 µM
[24] = second compound 1 µM, first compound 0.000316 µM
[25] = second compound 1 µM, first compound 0.001 µM
[26] = second compound 1 µM, first compound 0.00316 µM
[27] = second compound 1 µM, first compound 0.01 µM
[28] = second compound 3.16 µM, first compound 0.000316 µM
[29] = second compound 3.16 µM, first compound 0.001 µM
[30] = second compound 3.16 µM, first compound 0.00316 µM
[31] = second compound 3.16 µM, first compound 0.01 µM
[32] = second compound 10 µM, first compound 0.000316 µM
[33] = second compound 10 µM, first compound 0.001 µM
[34] = second compound 10 µM, first compound 0.00316 µM
[35] = second compound 10 µM, first compound 0.01 µM

COc1cccc2c1C(=O)c1c(O)c3c(c(O)c1C2=O)CC(O)(C(=O)CO)CC3OC1CC(N)C(O)C(C)O1 (configuration not stated) + Cc1ccccc1N=Nc1ccc(NC(=O)c2ccnn2C)c(C)c1
IC50 [1]: 0.29 µM | IC50 [2]: 0.397 µM | IC50 [3]: 0.369 µM | IC50 [4]: 0.397 µM | IC50 [5]: 0.4 µM | viability, T/C [6]: 61.7% | viability, T/C [7]: 52.4% | viability, T/C (second compound 0.1 µM, first compound 0.316 µM): 49.6% | viability, T/C (second compound 0.1 µM, first compound 1 µM): 23.8% | viability, T/C (second compound 0.1 µM, first compound 3.16 µM): 1.17% | viability, T/C (second compound 0.1 µM, first compound 10 µM): 0.89% | viability, T/C [8]: 65.6% | viability, T/C [9]: 61.6% | viability, T/C (second compound 0.316 µM, first compound 0.316 µM): 55.7% | viability, T/C (second compound 0.316 µM, first compound 1 µM): 25.5% | viability, T/C (second compound 0.316 µM, first compound 3.16 µM): 1.09% | viability, T/C (second compound 0.316 µM, first compound 10 µM): 1.35% | viability, T/C [10]: 58.6% | viability, T/C [11]: 60.4% | viability, T/C (second compound 1 µM, first compound 0.316 µM): 52.9% | viability, T/C (second compound 1 µM, first compound 1 µM): 25.7% | viability, T/C (second compound 1 µM, first compound 3.16 µM): 1.54% | viability, T/C (second compound 1 µM, first compound 10 µM): 0.92% | viability, T/C [12]: 59.9% | viability, T/C [13]: 62.6% | viability, T/C (second compound 3.16 µM, first compound 0.316 µM): 52.9% | viability, T/C (second compound 3.16 µM, first compound 1 µM): 30.6% | viability, T/C (second compound 3.16 µM, first compound 3.16 µM): 2.05% | viability, T/C (second compound 3.16 µM, first compound 10 µM): 0.61% | viability, T/C [14]: 61.7% | viability, T/C [15]: 57.5% | viability, T/C (second compound 10 µM, first compound 0.316 µM): 55.4% | viability, T/C (second compound 10 µM, first compound 1 µM): 27% | viability, T/C (second compound 10 µM, first compound 3.16 µM): 1.19% | viability, T/C (second compound 10 µM, first compound 10 µM): 1.56%

CC1COCCN1c1cc(-c2ccnn2C)c2ccnc(-c3ccn[nH]3)c2n1 (configuration not stated)
viability, T/C (compound 0.00316 µM): 108% and 93.8% and 98.7% | viability, T/C (compound 0.01 µM): 111% and 87.4% and 102% | viability, T/C (compound 0.0316 µM): 95.7% and 68.2% and 82.7% | viability, T/C (compound 0.1 µM): 64.3% and 61.4% and 47.2% | viability, T/C (compound 0.316 µM): 32.3% and 25.7% and 21% | viability, T/C (compound 1 µM): 22.3% and 15.8% and 13.9% | IC50 (curve of compound): 0.167 µM and 0.121 µM and 0.0909 µM

CC[C@@]1(O)C(=O)OCc2c1cc1n(c2=O)Cc2cc3c(CN(C)C)c(O)ccc3nc2-1 + Cc1ccccc1N=Nc1ccc(NC(=O)c2ccnn2C)c(C)c1
IC50 [1]: > 0.1 µM | IC50 [2]: > 0.1 µM | IC50 [3]: > 0.1 µM | IC50 [4]: > 0.1 µM | IC50 [5]: > 0.1 µM | viability, T/C [16]: 88.9% | viability, T/C [17]: 93.4% | viability, T/C [18]: 87.9% | viability, T/C [19]: 80.7% | viability, T/C [6]: 75.7% | viability, T/C [7]: 74.7% | viability, T/C [20]: 90.7% | viability, T/C [21]: 99.7% | viability, T/C [22]: 92.8% | viability, T/C [23]: 81% | viability, T/C [8]: 74.3% | viability, T/C [9]: 74.2% | viability, T/C [24]: 87.5% | viability, T/C [25]: 92.7% | viability, T/C [26]: 86.9% | viability, T/C [27]: 68% | viability, T/C [10]: 71.5% | viability, T/C [11]: 66.5% | viability, T/C [28]: 87.3% | viability, T/C [29]: 90.4% | viability, T/C [30]: 87.7% | viability, T/C [31]: 74.7% | viability, T/C [12]: 69.8% | viability, T/C [13]: 64.2% | viability, T/C [32]: 84% | viability, T/C [33]: 84.7% | viability, T/C [34]: 89.1% | viability, T/C [35]: 76.5% | viability, T/C [14]: 78% | viability, T/C [15]: 63.4%

Cn1ncnc1C1c2n[nH]c(=O)c3cc(F)cc(c23)NC1c1ccc(F)cc1 (configuration not stated) + CC(CO)NC(=O)c1cc(-c2ccc(Cl)cc2)nn(-c2cnn(C)c2)c1=O
IC50 [1]: > 0.1 µM | IC50 [2]: > 0.1 µM | IC50 [3]: > 0.1 µM | IC50 [4]: > 0.1 µM | IC50 [5]: > 0.1 µM | viability, T/C [16]: 100% | viability, T/C [17]: 102% | viability, T/C [18]: 106% | viability, T/C [19]: 95.1% | viability, T/C [6]: 91.4% | viability, T/C [7]: 92.4% | viability, T/C [20]: 99.5% | viability, T/C [21]: 103% | viability, T/C [22]: 101% | viability, T/C [23]: 88.5% | viability, T/C [8]: 87.6% | viability, T/C [9]: 87.8% | viability, T/C [24]: 100% | viability, T/C [25]: 95.7% | viability, T/C [26]: 103% | viability, T/C [27]: 94.1% | viability, T/C [10]: 93.5% | viability, T/C [11]: 91.2% | viability, T/C [28]: 91% | viability, T/C [29]: 94.1% | viability, T/C [30]: 92.1% | viability, T/C [31]: 80.2% | viability, T/C [12]: 77.8% | viability, T/C [13]: 79.1% | viability, T/C [32]: 74.3% | viability, T/C [33]: 71.7% | viability, T/C [34]: 75.9% | viability, T/C [35]: 69% | viability, T/C [14]: 68.5% | viability, T/C [15]: 67.1%

Reference: PubChem BioAssay AID1919007 (Molecular Pharmacology Branch, DTP, NCI, 2023)
